Experimental data published in publication PMC3344845, “Structure of Bradavidin – C-Terminal Residues Act as Intrinsic Ligands” (PLoS ONE, 2012).

What was measured:
Type in all cases: binding
wt bradavidin [1] = molecular target: T1, wt bradavidin (Bradyrhizobium diazoefficiens, UniProt Q89IH6); test: differential scanning calorimetry; details: 50 mM sodium phosphate pH 7.0, 100 mM NaCl; 15 µM protein, ~3:1 biotin:subunit; 120 °C/hour
T1 construct: gene blr5658; E. coli BL21-AI periplasm; homotetramer
T1 sequence (Q89IH6 26-163): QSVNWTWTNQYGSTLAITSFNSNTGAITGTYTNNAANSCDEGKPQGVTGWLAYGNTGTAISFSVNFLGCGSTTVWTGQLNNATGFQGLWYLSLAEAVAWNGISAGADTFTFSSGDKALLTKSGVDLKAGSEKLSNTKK

core-bradavidin [2] = molecular target: T2, core-bradavidin (Bradyrhizobium diazoefficiens, UniProt Q89IH6); test: isothermal titration calorimetry
T2 construct: gene blr5658; C-terminally truncated core form, 118 residues (truncation between Leu118 and Leu119), lacks Brad-tag; E. coli BL21-AI periplasm; homotetramer
Description: isothermal titration calorimetry on core-bradavidin

wt bradavidin [3] = molecular target: T1, wt bradavidin; test: isothermal titration calorimetry
Description: isothermal titration calorimetry on wt bradavidin

core-bradavidin [4] = molecular target: T2, core-bradavidin; test: differential scanning calorimetry; details: 50 mM sodium phosphate pH 7.0, 100 mM NaCl; 15 µM protein, ~3:1 biotin:subunit; 120 °C/hour

O=C(O)CCCC[C@@H]1SC[C@@H]2NC(=O)N[C@@H]21 [D-biotin]
Tm with biotin (wt bradavidin [1]): 101.7±0.1 °C
Kd (core-bradavidin [2]): < 1 nM
Kd (wt bradavidin [3]): 300 nM
Tm with biotin (core-bradavidin [4]): 97.9±0.2 °C
